This note sets out measurements from US12201671B2, “Polypeptides for treatment of cancer” (Saint Joseph's University, priority 2019, dated 2025).

Where no end group is shown, it is not given here. The star is where a group is joined. Biotin = O=C1N[C@H]2[C@H](CS[C@H]2CCCCC(=O)*)N1

Test [1] has as its target T1, c-Jun (Homo sapiens, UniProt P05412).
T1 construct: purchased Abcam
The test can be described thus: Binding kinetics by biolayer interferometry (BLI), Octet HTX. To be noted: 1:1 model; for koff: read-out: K off, binding to c-Jun; for kon: read-out: K on, binding to c-Jun. As for the experimental part: The binding kinetics of the peptides and full-length recombinant CAPER (R&D Systems, Minneapolis, MN) with the c-Jun (Abcam, Cambridge, MA) were determined using biolayer interferometry (BLI) on the Octet HTX system (Pall ForteBio, Fremont, CA). Amine Reactive 2nd Generation biosensors (cat #18-5092, Pall ForteBio) were activated with 1-Ethyl-3-[3-dimethylaminopropyl] carbodiimide hydrochloride and N-hydroxysulfosuccinimide (EDC/NHS) (Amine Coupling Kit II, Cat #ACK-001-025, Sierra Sensors, Billerica, MA) and conjugated with an anti-his tag antibody. The reaction was then quenched with 1M ethanolamine (Amine Coupling Kit II, Cat #ACK-001-025, Sierra Sensors). His-tagged recombinant c-Jun was then bound to the tips. The peptides were tested at a series of 2-fold dilutions including a buffer blank. The binding of full-length recombinant CAPER was also tested. Association and dissociation steps were performed for 900s each in 1×HBS-EP+ buffer (cat #BR100669, GE Healthcare Lifesciences, Pittsburgh, PA) supplemented with 450 mM NaCl (Sigma). The background was subtracted from each run and kinetics data was analyzed using ForteBio's Data Analysis Software version 10.0.3.1 using a 1:1 model.
A general note: BLI is a label-free optical method that tracks binding on a fibre tip over time.

Test [2] has as its system MCF10A cells. The test can be described thus: Apoptosis assay (Annexin V). Format: cell-based. To be noted: 20 μM, 7 days, vs DMSO and TAT controls. As for the experimental part:
(§1) Apoptosis was evaluated using both a Muse Caspase 3/7 kit (cat #MCH100108, EMD Millipore) and Muse Annexin V kit (Millipore cat #). Cells were treated for 7 days as described elsewhere herein, at the end of the 7 day dosing period, floating cells were collected and attached cells were washed 1× with PBS and then trypsinized with 0.05% trypsin. Cells were collected and combined with the floating cells. Cells were then counted and diluted to 20,000 cells/mL. For the caspase assay, 50 μL of cells were then incubated with the Muse Caspase 3/7 reagent at 37° C. for 30 min. After incubation 5 μL of 7-ADD dye was added and incubated for 5 min at room temperature. Cells were then analyzed on the Muse Cell Analyzer (Millipore). For the Annexin V assay, 100 μL of cells was then added to 100 μL of Annexin V reagent for 30 min at room temperature. Cells were then analyzed on the Muse Cell Analyzer (Millipore).

In test [3] the test system is MCF7 cells. Nature of the test: Cell count after 7 day treatment with and without estradiol. The test is classed as cell-based. To be noted: MCF7, 20 μM, 7 days, in the presence of estrogen. On the procedure:
(§2) MCF7 cells were switched to phenol free DMEM (cat #, 11054-020, Life Technologies), with 10% charcoal stripped FBS (cat #A33821-01, Life Technologies), 24 hrs prior to plating. After the starvation period, the cells were plated onto mm plates at cells/plate and allowed to adhere overnight. The next day cells were dosed with 20 μM of CAPER peptides along with a DMSO and TAT only controls with and without estradiol (E2) (cat #, Sigma). Cells were pre-treated with the peptide 4 hrs before the E2 was added. Cells were dosed daily for 7 days. At the end of the 7 day dosing period, floating cells were collected and adherent cells were trypsinized and counted via a hemocytometer

Test [4] relates to MCF7 cells. Nature of the test: Apoptosis assays (Muse Caspase 3/7 and Annexin V). Format: cell-based. The following applies: MCF7, 20 μM, 7 days, in the presence of estrogen. As for the experimental part:
as §2, §1

Test [5] has as its system MDA-MB-231 cells. Nature of the test: Cell cycle assay, nocodazole synchronized cells. Format: cell-based. To be noted: MDA-MB-231, 20 μM, 7 days. On the procedure:
(§3) MDA-MB-231 and BT549 cells were synchronized using nocodazole (cat #Sigma-Aldrich) for 24 hours. The floating cells were then aspirated off and the plate was rinsed with media to collect the loosely attached cells (G2/M fraction). The cells were then plated as described above. A fraction of the treated cells was processed for cell cycle to confirm synchronization. Cells were then treated for 7 days as described above, at the end of the 7 day dosing period, floating cells were collected and attached cells were washed 1× with PBS and then trypsinized with 0.05% trypsin. Cells were collected and combined with the floating cells. Cells were counted and diluted according to the Muse Cell Cycle Kit (cat #MCH100106, EMD Millipore) instructions and samples were then read on the Muse Cell Analyzer.

Test [6] relates to BT549 cells. The test can be described thus: Cell cycle assay, nocodazole synchronized cells. Format: cell-based. The following applies: BT549, 20 μM, 7 days. On the procedure: as §3
In the next test the target is T2, Estrogen Receptor α (Homo sapiens, UniProt P03372).
T2 sequence (P03372 1-595): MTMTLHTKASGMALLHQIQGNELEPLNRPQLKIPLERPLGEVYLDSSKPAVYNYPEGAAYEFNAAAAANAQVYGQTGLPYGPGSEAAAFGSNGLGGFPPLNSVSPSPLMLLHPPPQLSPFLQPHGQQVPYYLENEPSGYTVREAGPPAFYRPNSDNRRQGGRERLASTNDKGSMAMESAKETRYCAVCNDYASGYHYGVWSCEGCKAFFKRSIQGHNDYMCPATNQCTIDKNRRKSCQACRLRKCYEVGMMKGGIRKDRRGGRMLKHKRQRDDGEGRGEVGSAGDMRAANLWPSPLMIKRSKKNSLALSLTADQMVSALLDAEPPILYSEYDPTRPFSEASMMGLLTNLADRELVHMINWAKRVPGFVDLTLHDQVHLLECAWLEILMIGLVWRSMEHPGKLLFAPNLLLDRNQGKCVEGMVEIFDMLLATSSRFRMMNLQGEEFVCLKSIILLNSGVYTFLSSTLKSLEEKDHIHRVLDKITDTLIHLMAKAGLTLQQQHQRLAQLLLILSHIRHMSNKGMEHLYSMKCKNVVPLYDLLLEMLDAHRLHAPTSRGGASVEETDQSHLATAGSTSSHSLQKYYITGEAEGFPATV
The test can be described thus: Binding kinetics (BLI) to Estrogen Receptor α. To be noted: for koff: read-out: K off, binding to Estrogen Receptor α; for kon: read-out: K on, binding to Estrogen Receptor α.

The test system of test [7] is MDA-MB-231 cells. The test can be described thus: Cell count after 7 day treatment. The test is classed as cell-based. The following applies: MDA-MB-231, 20 μM daily, 7 days, vs DMSO and TAT controls. On the procedure: (§4) MDA-MB-231, BT549, and MCF10A cells were plated onto 10 cm plates at 50,000 cells per plate, 100,000 cells per plate and 25,000 cells, respectively. The cells were allowed to adhere overnight, the next day cells were with 20 μM of CAPER peptides along with a DMSO and TAT only controls. Cells were dosed daily for 7 days. At the end of the 7 day dosing period, floating cells were collected and adherent cells were trypsinized and counted via a hemocytometer.

Test [8] concerns MCF10A cells. Nature of the test: Cell count after 7 day treatment. The test is classed as cell-based. The following applies: MCF10A non-tumorigenic, 20 μM daily, 7 days, vs DMSO and TAT controls. On the procedure: as §4
The subject of test [9] is BT549 cells. The test can be described thus: Cell count after 7 day treatment. Format: cell-based. The following applies: BT549, 20 μM daily, 7 days, vs DMSO and TAT controls. On the procedure: as §4
Another test addresses T3, ERα (Homo sapiens, UniProt P03372).
T3 sequence (P03372 1-595): T2 sequence (P03372 1-595)
Nature of the test: Inhibition of full-length recombinant CAPER binding to ERα.

The test system of test [10] is MDA-MB-231 cells. Nature of the test: Apoptosis assays (Muse Caspase 3/7 and Annexin V). The test is classed as cell-based. The following applies: MDA-MB-231, 20 μM, 7 days. As for the experimental part:
as §1

Test [11] has as its system BT549 cells. The test can be described thus: Apoptosis assays (Muse Caspase 3/7 and Annexin V). Format: cell-based. The following applies: BT549, 20 μM, 7 days. On the procedure:
as §1

Test [12] addresses T1, c-Jun. Nature of the test: BLI competition assay: full-length CAPER binding to peptide-saturated c-Jun. The following applies: c-Jun saturated with peptide at 10x KD; compared to CAPER binding without peptide. On the procedure: Competition assays were determined using BLI on the Octet HTX system (Pall ForteBio, Fremont, CA). Amine Reactive 2nd Generation biosensors (cat #18-5092, Pall ForteBio) were activated with 1-Ethyl-3-[3-dimethylaminopropyl] carbodiimide hydrochloride and N-hydroxysulfosuccinimide (EDC/NHS) (Amine Coupling Kit II, Cat #ACK-001-025, Sierra Sensors, Billerica, MA) and conjugated with an anti-his tag antibody. The reaction was then quenched with 1M ethanolamine (Amine Coupling Kit II, Cat #ACK-001-025, Sierra Sensors). Recombinant c-Jun containing a his-tag was then bound to the tips. The peptides were allowed to saturate the receptor at a concentration of 10× the KD of each peptide. After receptor saturation binding of full-length CAPER to the receptor was measured and the signal was compared back to full-length CAPER binding to the receptor in the absence of the peptide. Binding steps were performed for 900s each in 1× HBS-EP+ buffer (cat #BR100669, GE Healthcare Lifesciences, Pittsburgh, PA) supplemented with 450 mM NaCl (Sigma). The background was subtracted from each run and the signal was represented as a % inhibition compared to full-length CAPER binding in the absence of the peptide.

The mark [13] stands for this setting: his-tagged c-Jun on anti-his tips.

T1 sequence (P05412 whole entry): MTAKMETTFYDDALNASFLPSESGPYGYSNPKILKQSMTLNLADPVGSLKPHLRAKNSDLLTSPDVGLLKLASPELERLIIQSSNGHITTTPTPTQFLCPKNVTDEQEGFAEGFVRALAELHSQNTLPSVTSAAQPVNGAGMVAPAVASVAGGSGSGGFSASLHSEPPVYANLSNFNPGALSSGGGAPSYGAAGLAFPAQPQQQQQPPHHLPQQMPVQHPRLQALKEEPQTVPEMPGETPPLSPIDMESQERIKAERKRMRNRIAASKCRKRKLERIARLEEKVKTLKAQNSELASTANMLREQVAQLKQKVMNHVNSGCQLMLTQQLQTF

As for “Biotin-RLQLMARLAEGTGLQIPPAAQQALQMSGSLAFGAVADLQTRLSQQ (N-terminus assumed) [CAPER peptide HCC1.3]”, the results for the koff at c-Jun [1] and at Estrogen Receptor α were 0.000337 s⁻¹ and 0.000115 s⁻¹, respectively. In addition, the kon stood at 37900 M⁻¹ s⁻¹ at c-Jun [1] and 25400 M⁻¹ s⁻¹ on Estrogen Receptor α. Also, the Apoptotic cells result with MCF10A cells [2] is given as “no significant change”. Besides, the Cell number result with MCF7 cells [3], in the test on MDA-MB-231 cells [7] and in the test on BT549 cells [9] was “significant decrease” throughout. Further, the “Early apoptotic and apoptotic dead cells” value with MCF7 cells [4], with MDA-MB-231 cells [10] and in the test with BT549 cells [11] was “significant increase” throughout. Further, the Live cells entry with MCF7 cells [4], with MDA-MB-231 cells [10] and in the test on BT549 cells [11] was “significant decrease” throughout. For the same molecule, the “Effect on cell cycle” value in the test with MDA-MB-231 cells [5] and in the test with BT549 cells [6] was “no effect” throughout. Moreover, in the test with MCF10A cells [8], the Cell count result is given as “no significant change”. For the same molecule, the “Binding of full-length recombinant CAPER to ERα” value on ERα is on record as “alter the binding”.
Regarding “Biotin-RLQLMARLAEGTGLQIPPAAQQALQMSGSLAFGAVAEFSFVIDLQ (N-terminus assumed) [CAPER peptide HCC1.4]”, the koff is 0.00098 s⁻¹ at c-Jun [1] and 0.00172 s⁻¹ on Estrogen Receptor α. In addition, the results for the kon at c-Jun [1] and on Estrogen Receptor α were 38300 M⁻¹ s⁻¹ and 57100 M⁻¹ s⁻¹, respectively. The Apoptotic cells entry in the test with MCF10A cells [2] was “no significant change”. Also, the Cell number entry in the test with MCF7 cells [3], with MDA-MB-231 cells [7] and in the test with BT549 cells [9] was “significant decrease” in each case. Also, the “Early apoptotic and apoptotic dead cells” value with MCF7 cells [4], in the test with MDA-MB-231 cells [10] and in the test on BT549 cells [11] was “significant increase” each time. In addition, the Live cells result in the test on MCF7 cells [4], with MDA-MB-231 cells [10] and in the test on BT549 cells [11] was “significant decrease” in each case. Further, the “Effect on cell cycle” value in the test on MDA-MB-231 cells [5] and in the test on BT549 cells [6] was “no effect” throughout. The Cell count result in the test with MCF10A cells [8] was “no significant change”. Also, the “Binding of full-length recombinant CAPER to ERα” value on ERα is “alter the binding”.
As to “VGDALQGLRLFSTQASIGAQMEQLAAQPLRAGQMLQLAQASPLRT [CAPER scrambled peptide, scrambled control peptide, reference compound]”, at c-Jun [1] (setting [13]), the “KD, binding to c-Jun” value is listed as “could not be determined”. The “Inhibition of full-length recombinant CAPER binding to c-Jun” value on c-Jun [12] was “no significant change”.
Take “YGRKKRRQRRR [TAT only control, reference compound]”: the “KD, binding to c-Jun” value on c-Jun [1] (setting [13]) is given as “could not be determined”.

B1: Recombinant Full-Length CAPER HCC1.3: full-length recombinant CAPER (R&D Systems), isoform HCC1.3 (protein)
chain: MADDIDIEAMLEAPYKKDENKLSSANGHEERSKKRKKSKSRSRSHERKRSKSKERKRSRDRERKKSKSRERKRSRSKERRRSRSRSRDRRFRGRYRSPYSGPKFNSAIRGKIGLPHSIKLSRRRSRSKSPFRKDKSPVREPIDNLTPEERDARTVFCMQLAARIRPRDLEEFFSTVGKVRDVRMISDRNSRRSKGIAYVEFVDVSSVPLAIGLTGQRVLGVPIIVQASQAEKNRAAAMANNLQKGSAGPMRLYVGSLHFNITEDMLRGIFEPFGRIESIQLMMDSETGRSKGYGFITFSDSECAKKALEQLNGFELAGRPMKVGHVTERTDASSASSFLDSDELERTGIDLGTTGRLQLMARLAEGTGLQIPPAAQQALQMSGSLAFGAVADLQTRLSQQTEASALAAAASVQPLATQCFQLSNMFNPQTEEEVGWDTEIKDDVIEECNKHGGVIHIYVDKNSAQGNVYVKCPSIAAAIAAVNALHGRWFAGKMITAAYVPLPTYHNLFPDSMTATQLLVPSRR
As usually defined, the Kd is the free concentration of one partner at which half of the binding sites on the other are occupied at equilibrium, for simple one-to-one binding. Read a low Kd as higher affinity. With B1, in the test with c-Jun [1], the “K off, binding to c-Jun” value came out at 5.66e-05 s⁻¹ and the “K on, binding to c-Jun” value amounted to 312000 M⁻¹ s⁻¹. Also, the equilibrium dissociation constant (Kd) with c-Jun [1] (setting [13]) amounted to 0.18 nM. Further, in the test with Estrogen Receptor α, the “K off, binding to Estrogen Receptor α” value was determined as 2.34e-05 s⁻¹ and the “K on, binding to Estrogen Receptor α” value is 937000 M⁻¹ s⁻¹.
